Measured values: US20060252683A1, “Preparation of a peptide compound (SYRAPRO-2000) and its use for the activation of protein phosphatase-2A1 enzyme” (priority 2005, published 2006)

Key:
[1] = biological target: T1, protein phosphatase-2A1 (Homo sapiens, UniProt P67775); experiment: Assay of purified protein phosphatase-2A1 in vitro with 32P-labeled phosphorylase a as substrate; type: biochemical; parameters: Protein phosphatase-2A1 purified from CD^4+ T cells as described in materials and method; endogenous in cells; host or cells: Jurkat cells; enzyme purified by DEAE Sepharose, Sephacryl S-300 HR and poly-L-lysine Agarose; conditions: highly purified enzyme from Jurkat cells
Experimental: Protein phosphatase-2A1 purified from CD^4+ T cells as described in materials and method was assayed in the presence of various concentrations of SYRAPRO-2000. 100 percent protein phosphatase-2A1 activity is equivalent to 0.005 unit. Similar result were obtained in 3 independent experiments.
The effect of synthesized SYRAPRO-2000 on purified protein phosphatase-2A1 can be determined in vitro. Protein phosphatase-2A1 can be assayed using ^32P-labeled phosphorylase a as substrate in the presence of various concentrations of SYRAPRO-2000. Protein phosphatase-2A1 is activated in the presence of SYRAPRO-2000.
Protein phosphatase-1 was assayed as described in (Cohen 1988). Protein phosphatase-2B was assayed as described in (Tung 1986). Protein phosphatase-2C was assayed as described in (Tung 1986) except Ca^2+ and calmodulin were omitted. The assay of protein phosphatases-2A1 consisted of 0.02 ml of enzyme solution in 50 mM Imidazole-Cl pH 7.2, 0.2 mM EGTA, 0.1% (v/v) 2-mercaptoethanol and 1 mg/ml bovine serum albumin (Assay Buffer), 0.01 ml of inhibitor-2 at 600 nM in Assay Buffer, 0.01 ml of protamine at 60 μg/ml in Assay Buffer or 0.01 ml of SYRAPRO-2000 at different concentrations in Assay Buffer or 0.01 ml of Assay Buffer alone, 0.02 ml of ^32P-labeled phosphorylase a at 3 mg/ml in Assay Buffer containing 15 mM caffeine. The assay components were preincubated for 10 minutes prior to initiating the reaction with ^32P-labeled phosphorylase a. One unit of protein phosphatase activity is that amount of enzyme which catalyzes the release of 1 nmol of phosphate from ^32P-labeled substrate per min at 30° C.
Jurkat cells, a human transformed CD^4+ T cell line, were grown in grown in RPMI 1680 supplemented with 5% (v/v) fetal bovine serum at 37° C. in 95% air/5% CO2 in a humidified incubator. 2.4 liters of cells were collected by centrifugation at 4200 rpm in a low speed centrifuge for 10 minutes. The cells were homogenized in 80 ml of 50 mM Imidazole-Cl pH 7.2, 2 mM EGTA, 2 mM EDTA, 0.1% (v/v) 2-mercaptoethanol, 0.2 mM PMSF, 1 mM benzamidine, 4 μg/ml aprotinin, 4 μg/ml leupeptin, 4 μg/ml pepstatin, 0.1 mM TLCK, 0.1 mM TPCK, 1 mM sodium orthovanadate and 10% (v/v) glycerol by 40 strokes in a glass hand held homogenizer. The homogenate was centrifuged at 29000 rpm in a high speed centrifuge for 30 minutes. The supernatant (i.e the extract) was collected and loaded onto a DEAE Sepharose column (1.5×6 cm) equilibrated in 25 mM Imidazole-Cl pH 7.2, 0.2 mM EGTA, 0.1% (v/v) 2-mercaptoethanol, 0.1 mM PMSF, 1 mM benzamidine and 10% (v/v) glycerol (Buffer A). The column was washed with 50 ml of Buffer and then eluted with a 200 ml linear gradient of Buffer A to Buffer A plus 0.4 M NaCl. The eluted fractions were then assayed for phosphorylase phosphatase activity in the presence of 100 nM inhibitor-2 and 10 μg/ml of protamine. Two major peaks of phosphorylase phosphatase were observed. The first and second peak represent protein phosphatase-2A0 and protein phosphatase-2A1 respectively. […] The major activity eluting as a species of apparent molecular mass 300 kDa was collected, diluted four fold in Buffer A and loaded onto a poly-L-lysine Agarose Column (1.5×4 cm) equilibrated in Buffer A. The column was washed with 50 ml of Buffer A and then eluted with a 200 ml linear gradient of Buffer A to Buffer A plus 0.5 M NaCl. The active fractions eluting at ˜0.30 M NaCl salt concentration was pooled, concentrated by vacuum dialysis and stored at ^−20° C. in 50 mM Imidazole-Cl pH 7.2, 0.2 mM EGTA in the presence of 50% (v/v) glycerol. The highly purified enzyme consisted of the characteristic subunits of protein phosphatase-2A1, namely the A, B and C subunits. […] It is difficult to determine the activity of protein phosphatase-2A1 in CD^4+ T cell extract. However, assuming that it represented about 66 percent of total type 2A protein phosphatase activity in CD^4+ T cell extract, the specific activity of the enzyme in extract was estimated to be 0.3 unit/mg. […]
Target sequence in this assay (P67775 whole entry): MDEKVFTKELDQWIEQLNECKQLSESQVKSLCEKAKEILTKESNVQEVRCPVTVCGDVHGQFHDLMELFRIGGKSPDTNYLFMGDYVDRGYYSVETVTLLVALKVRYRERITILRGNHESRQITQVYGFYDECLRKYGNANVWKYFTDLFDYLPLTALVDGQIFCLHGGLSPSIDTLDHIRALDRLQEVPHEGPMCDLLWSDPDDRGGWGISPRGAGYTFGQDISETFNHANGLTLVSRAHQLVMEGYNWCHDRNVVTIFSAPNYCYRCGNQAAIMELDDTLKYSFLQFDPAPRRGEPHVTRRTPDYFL
Target sequence in this assay (P30153 whole entry partner): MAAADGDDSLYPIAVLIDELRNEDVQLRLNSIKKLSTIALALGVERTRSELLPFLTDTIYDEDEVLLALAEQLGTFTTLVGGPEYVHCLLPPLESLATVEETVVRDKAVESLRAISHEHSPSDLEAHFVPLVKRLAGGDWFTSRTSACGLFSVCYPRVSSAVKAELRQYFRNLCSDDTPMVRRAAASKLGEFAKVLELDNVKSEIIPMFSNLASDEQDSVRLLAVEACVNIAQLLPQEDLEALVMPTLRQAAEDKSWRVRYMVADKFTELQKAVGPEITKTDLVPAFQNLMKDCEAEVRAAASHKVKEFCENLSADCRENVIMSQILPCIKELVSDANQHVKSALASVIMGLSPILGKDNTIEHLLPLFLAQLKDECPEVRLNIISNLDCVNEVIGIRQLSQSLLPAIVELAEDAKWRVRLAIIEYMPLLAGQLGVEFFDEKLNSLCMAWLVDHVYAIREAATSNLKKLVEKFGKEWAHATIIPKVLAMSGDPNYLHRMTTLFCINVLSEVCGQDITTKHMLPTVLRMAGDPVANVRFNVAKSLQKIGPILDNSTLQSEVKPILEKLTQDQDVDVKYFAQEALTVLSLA
Target sequence in this assay (P63151 whole entry partner): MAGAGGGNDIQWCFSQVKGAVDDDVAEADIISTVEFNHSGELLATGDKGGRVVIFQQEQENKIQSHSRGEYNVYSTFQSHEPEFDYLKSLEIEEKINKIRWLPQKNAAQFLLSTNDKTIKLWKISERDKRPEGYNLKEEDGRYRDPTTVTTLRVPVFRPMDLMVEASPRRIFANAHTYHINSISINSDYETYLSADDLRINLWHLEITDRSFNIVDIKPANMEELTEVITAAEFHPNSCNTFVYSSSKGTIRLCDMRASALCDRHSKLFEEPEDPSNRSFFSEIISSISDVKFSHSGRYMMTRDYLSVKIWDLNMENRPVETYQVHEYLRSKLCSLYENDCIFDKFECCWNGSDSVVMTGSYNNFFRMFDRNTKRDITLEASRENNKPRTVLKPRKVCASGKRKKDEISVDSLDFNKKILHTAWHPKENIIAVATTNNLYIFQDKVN

[2] = biological target: T1, protein phosphatase-2A1; conditions: Tung 1997; Janoo 2005; cited from earlier work
Target sequence in this assay (P67775 whole entry): as the sequence (P67775 whole entry) above

Molecule	effect on protein phosphatase-2A1 from CD4+ T cells [1]	activation of protein phosphatase-2A1 [2]
C=C1[C@@H](O)[C@@H]2O[C@]3(CC[C@H](/C=C/[C@@H](C)[C@@H]4CC(C)=C[C@@]5(O[C@H](C[C@@](C)(O)C(=O)O)CC[C@H]5O)O4)O3)CC[C@H]2O[C@@H]1[C@@H](O)C[C@H](C)[C@H]1O[C@@]2(CCCCO2)CC[C@H]1C [okadaic acid, reference compound]	inhibited	–
full length HIV-1 Vpr: full length HIV-1 Vpr protein, tested in the literature	–	not to activate
protamine [reference compound]	activated	–
inhibitor-2: Protein phosphatase-1 inhibitor-2 purified from rabbit skeletal muscle (protein, UniProt P11845 2-205, looked up) Protein phosphatase inhibitor …: AASTASHRPIKGILKNKTSSTSSRVASAEQPRGSVDEELSKKSQKWDEMNILATYHPADKDYGLMKIDEPSTPYHSMIGDDDDAYSDTETTEAMTPDTLAKKLAAAEGSEPKYRIREQESSGEEDSDLSPEEREKKRQFEMKRKLHYNEGLNIKLARQLISKDLHDDEEDEEMSETADGESMNTEESNQGSTPSDQRQNKSQSS	not inhibited	–
